Measured values: ChEMBL document CHEMBL5653615 (J Biol Chem, 2013)

Experiments:
[1] = biological target: Serine/threonine-protein kinase pim-1 (Homo sapiens) (UniProt P11309); test: Inhibition of human PIM1 at 500 nM by HotSpot assay relative to control
[2] = biological target: T1, Beta-adrenergic receptor kinase 1 (Homo sapiens) (UniProt P25098); test: Inhibition of human GRK2 at 500 nM by HotSpot assay relative to control
T1 sequence (whole entry): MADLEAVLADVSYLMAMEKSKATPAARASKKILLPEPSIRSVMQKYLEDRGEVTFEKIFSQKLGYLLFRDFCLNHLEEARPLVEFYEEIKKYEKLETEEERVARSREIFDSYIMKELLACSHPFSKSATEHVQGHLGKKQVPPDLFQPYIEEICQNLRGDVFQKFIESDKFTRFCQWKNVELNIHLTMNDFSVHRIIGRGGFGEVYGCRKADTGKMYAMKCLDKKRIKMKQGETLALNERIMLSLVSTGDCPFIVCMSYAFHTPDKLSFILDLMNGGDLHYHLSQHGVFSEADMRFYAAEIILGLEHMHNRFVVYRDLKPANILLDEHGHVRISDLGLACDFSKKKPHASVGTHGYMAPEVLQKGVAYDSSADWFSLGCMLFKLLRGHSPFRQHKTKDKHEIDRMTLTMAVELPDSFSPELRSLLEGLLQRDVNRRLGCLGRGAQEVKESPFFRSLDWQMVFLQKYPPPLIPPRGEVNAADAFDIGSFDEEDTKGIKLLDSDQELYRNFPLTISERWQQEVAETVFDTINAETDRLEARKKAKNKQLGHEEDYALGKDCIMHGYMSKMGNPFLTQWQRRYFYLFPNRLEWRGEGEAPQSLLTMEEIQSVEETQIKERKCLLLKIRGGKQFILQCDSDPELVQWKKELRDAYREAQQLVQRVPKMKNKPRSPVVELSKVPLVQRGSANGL

[3] = biological target: Dual specificity protein kinase CLK2 (Homo sapiens) (UniProt P49760); test: Inhibition of human CLK2 at 500 nM by HotSpot assay relative to control
Dual specificity protein kinase CLK2 (Homo sapiens), sequence (P49760 whole entry, looked up): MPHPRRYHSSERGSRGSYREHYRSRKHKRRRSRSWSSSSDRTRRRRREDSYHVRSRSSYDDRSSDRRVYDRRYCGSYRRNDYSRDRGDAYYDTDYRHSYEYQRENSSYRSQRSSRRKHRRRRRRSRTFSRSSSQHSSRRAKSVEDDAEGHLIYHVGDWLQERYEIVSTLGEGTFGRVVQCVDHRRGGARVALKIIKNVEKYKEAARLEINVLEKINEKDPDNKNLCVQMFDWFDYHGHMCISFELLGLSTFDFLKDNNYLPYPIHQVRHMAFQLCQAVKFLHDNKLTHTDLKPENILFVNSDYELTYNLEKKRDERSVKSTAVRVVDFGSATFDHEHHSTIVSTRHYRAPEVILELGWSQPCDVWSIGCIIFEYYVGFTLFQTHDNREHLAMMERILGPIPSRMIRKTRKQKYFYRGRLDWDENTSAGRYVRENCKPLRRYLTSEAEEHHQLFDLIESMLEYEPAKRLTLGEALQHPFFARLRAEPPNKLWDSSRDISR

[4] = biological target: T2, MAP/microtubule affinity-regulating kinase 4 (Homo sapiens) (UniProt Q96L34); test: Inhibition of human MARK4 at 500 nM by HotSpot assay relative to control
T2 sequence (whole entry): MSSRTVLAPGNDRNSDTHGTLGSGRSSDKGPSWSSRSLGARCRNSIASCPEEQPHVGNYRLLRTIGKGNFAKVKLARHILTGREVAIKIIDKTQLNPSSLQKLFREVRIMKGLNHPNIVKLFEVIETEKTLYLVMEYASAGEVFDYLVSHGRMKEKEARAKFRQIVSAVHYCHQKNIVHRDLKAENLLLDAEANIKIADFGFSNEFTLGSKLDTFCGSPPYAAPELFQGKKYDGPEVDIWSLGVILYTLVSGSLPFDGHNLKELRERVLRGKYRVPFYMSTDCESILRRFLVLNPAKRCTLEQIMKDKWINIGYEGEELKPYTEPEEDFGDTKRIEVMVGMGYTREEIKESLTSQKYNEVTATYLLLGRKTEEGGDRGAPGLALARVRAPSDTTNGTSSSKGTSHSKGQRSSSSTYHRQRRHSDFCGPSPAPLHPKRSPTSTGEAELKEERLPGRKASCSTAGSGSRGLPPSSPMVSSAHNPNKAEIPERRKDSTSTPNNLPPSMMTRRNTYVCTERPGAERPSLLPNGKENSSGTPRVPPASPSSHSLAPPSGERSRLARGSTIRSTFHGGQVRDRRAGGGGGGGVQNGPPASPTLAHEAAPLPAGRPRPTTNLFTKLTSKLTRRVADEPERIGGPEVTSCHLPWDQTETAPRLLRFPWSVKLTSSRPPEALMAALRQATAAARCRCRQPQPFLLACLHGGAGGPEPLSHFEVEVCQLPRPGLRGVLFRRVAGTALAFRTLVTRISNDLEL

[5] = biological target: T3, Homeodomain-interacting protein kinase 4 (Homo sapiens) (UniProt Q8NE63); test: Inhibition of human HIPK4 at 500 nM by HotSpot assay relative to control
T3 sequence (whole entry): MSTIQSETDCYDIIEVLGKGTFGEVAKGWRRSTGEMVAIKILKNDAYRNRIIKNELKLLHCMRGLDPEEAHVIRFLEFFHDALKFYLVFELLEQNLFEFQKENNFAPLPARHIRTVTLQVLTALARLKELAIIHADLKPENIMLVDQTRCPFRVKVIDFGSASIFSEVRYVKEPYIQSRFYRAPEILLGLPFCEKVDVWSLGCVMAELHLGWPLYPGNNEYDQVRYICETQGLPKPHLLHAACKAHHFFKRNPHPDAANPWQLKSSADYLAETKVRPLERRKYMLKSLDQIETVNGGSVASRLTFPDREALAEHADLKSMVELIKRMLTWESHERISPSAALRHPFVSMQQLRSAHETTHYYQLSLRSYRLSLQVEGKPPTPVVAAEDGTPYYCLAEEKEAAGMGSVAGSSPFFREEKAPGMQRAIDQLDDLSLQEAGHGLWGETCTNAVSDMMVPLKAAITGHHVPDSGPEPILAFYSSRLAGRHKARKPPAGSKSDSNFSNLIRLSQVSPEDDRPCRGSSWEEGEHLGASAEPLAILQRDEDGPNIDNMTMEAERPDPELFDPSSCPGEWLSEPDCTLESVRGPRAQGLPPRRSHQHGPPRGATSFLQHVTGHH

[6] = biological target: Serine/threonine-protein kinase PAK 1 (Homo sapiens) (UniProt Q13153); test: Inhibition of human PAK1 at 500 nM by HotSpot assay relative to control
Serine/threonine-protein kinase PAK 1 (Homo sapiens), sequence (Q13153 whole entry): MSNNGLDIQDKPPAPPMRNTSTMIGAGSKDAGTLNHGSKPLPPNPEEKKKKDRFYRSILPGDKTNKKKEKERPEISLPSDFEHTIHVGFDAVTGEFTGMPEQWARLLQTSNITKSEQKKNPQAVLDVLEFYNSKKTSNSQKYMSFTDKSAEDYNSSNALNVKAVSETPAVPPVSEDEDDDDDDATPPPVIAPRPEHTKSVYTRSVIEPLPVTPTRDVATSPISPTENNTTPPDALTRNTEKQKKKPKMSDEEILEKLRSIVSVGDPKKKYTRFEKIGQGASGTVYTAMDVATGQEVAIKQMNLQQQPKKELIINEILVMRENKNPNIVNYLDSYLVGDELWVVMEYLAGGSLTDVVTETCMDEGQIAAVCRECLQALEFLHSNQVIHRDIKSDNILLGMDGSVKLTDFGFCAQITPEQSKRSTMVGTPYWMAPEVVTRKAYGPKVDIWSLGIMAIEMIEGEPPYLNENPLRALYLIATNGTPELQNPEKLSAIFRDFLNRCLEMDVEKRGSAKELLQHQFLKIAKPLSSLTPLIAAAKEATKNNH

[7] = biological target: Ephrin type-A receptor 7 (Homo sapiens) (UniProt Q15375); test: Inhibition of human EPHA7 at 500 nM by HotSpot assay relative to control
Ephrin type-A receptor 7 (Homo sapiens), sequence (Q15375 28-998 limits assumed): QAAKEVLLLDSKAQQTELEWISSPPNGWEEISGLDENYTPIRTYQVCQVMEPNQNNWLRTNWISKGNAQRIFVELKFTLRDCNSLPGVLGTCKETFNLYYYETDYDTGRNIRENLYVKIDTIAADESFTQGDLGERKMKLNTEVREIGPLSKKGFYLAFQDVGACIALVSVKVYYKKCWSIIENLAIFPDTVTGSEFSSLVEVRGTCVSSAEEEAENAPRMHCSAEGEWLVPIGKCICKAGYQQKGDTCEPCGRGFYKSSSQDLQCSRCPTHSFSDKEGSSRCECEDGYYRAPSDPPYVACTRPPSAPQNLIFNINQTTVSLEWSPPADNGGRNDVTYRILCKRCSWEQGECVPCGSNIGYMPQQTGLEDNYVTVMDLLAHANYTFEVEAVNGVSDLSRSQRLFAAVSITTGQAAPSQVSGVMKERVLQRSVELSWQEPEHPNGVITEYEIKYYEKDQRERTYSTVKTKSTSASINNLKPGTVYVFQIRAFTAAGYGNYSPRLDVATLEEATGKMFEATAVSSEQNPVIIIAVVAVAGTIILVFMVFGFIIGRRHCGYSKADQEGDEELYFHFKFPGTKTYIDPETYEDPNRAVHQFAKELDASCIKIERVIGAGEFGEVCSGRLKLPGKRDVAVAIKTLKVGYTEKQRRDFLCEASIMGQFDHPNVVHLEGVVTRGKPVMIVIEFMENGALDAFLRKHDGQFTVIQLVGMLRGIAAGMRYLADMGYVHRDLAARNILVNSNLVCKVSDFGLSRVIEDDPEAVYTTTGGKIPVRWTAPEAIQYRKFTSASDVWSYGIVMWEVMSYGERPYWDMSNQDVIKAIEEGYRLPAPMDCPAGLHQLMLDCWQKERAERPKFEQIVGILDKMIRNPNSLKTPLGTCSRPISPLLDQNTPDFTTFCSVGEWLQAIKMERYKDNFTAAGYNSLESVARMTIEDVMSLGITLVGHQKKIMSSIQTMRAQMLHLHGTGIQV

[8] = biological target: T4, Serine/threonine-protein kinase 3 (Homo sapiens) (UniProt Q13188); test: Inhibition of human STK3 at 500 nM by HotSpot assay relative to control
T4 sequence (whole entry): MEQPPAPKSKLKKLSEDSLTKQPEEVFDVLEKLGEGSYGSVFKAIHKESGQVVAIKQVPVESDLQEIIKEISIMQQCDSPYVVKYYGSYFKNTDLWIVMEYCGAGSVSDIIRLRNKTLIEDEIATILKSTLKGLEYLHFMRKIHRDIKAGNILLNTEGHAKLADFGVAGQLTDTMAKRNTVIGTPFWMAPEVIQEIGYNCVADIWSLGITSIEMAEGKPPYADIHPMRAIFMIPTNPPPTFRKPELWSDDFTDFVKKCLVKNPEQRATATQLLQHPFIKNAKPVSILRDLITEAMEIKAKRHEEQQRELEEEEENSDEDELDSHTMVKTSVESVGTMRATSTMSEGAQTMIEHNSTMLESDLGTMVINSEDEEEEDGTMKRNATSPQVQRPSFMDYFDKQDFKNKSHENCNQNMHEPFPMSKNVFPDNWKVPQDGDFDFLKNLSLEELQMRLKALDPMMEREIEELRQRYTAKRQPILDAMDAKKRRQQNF

[9] = biological target: Vascular endothelial growth factor receptor 2 (Homo sapiens) (UniProt P35968); test: Inhibition of human KDR at 500 nM by HotSpot assay relative to control
Vascular endothelial growth factor receptor 2 (Homo sapiens), sequence (P35968 whole entry): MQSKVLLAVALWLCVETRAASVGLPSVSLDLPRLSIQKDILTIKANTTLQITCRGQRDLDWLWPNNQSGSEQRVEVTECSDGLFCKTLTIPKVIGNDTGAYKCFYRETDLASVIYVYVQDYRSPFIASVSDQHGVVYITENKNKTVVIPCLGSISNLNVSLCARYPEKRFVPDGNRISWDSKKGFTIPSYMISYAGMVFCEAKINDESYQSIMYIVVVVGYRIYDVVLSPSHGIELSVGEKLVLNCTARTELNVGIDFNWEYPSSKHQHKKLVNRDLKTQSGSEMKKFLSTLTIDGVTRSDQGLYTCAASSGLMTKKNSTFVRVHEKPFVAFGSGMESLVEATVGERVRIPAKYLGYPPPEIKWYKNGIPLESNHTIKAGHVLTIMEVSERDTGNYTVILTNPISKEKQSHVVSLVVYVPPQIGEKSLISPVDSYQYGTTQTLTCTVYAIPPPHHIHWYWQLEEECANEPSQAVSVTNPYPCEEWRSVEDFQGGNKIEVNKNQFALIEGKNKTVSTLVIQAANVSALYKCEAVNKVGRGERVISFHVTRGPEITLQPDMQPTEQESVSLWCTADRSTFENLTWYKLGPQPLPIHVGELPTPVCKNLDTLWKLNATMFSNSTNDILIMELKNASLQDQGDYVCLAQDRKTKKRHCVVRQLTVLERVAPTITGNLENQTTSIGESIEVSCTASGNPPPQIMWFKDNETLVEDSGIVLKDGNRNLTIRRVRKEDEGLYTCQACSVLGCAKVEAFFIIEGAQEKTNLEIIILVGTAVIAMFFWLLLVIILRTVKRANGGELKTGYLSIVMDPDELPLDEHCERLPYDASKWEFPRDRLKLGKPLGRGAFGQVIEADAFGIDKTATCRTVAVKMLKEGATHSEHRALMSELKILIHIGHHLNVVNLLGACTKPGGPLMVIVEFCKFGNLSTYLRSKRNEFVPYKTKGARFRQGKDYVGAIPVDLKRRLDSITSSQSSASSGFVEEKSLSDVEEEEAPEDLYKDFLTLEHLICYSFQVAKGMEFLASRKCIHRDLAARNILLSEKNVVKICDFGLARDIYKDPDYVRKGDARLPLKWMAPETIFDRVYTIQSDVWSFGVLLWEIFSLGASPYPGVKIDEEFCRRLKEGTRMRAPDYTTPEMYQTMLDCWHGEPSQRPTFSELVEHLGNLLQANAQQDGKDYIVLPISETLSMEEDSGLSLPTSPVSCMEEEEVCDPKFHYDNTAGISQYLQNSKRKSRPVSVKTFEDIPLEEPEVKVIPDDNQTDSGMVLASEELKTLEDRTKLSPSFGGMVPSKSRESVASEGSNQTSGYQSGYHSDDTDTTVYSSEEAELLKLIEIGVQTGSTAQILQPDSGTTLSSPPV

Serine/threonine-protein kinase pim-1 (Homo sapiens), sequence (P11309 whole entry, looked up): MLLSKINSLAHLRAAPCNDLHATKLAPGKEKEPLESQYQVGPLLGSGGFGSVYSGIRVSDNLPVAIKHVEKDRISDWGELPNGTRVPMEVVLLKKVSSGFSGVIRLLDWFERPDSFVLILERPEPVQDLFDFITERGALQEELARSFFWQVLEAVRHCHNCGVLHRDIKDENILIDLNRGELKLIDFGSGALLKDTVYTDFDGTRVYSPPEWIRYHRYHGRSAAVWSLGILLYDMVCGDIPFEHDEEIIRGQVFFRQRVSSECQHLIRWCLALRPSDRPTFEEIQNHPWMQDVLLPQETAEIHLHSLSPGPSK

Question: With `Oc1n[nH]c2nnc(-c3c(-c4ccccc4)nn4ccccc34)cc12` as the compound, how does the inhibition [1] read?
Answer: 0.66%

Question: And the inhibition [2]?
Answer: 5.01%

Question: What about the inhibition [3] of the same compound?
Answer: 2.49%

Question: And the inhibition [4]?
Answer: -3.17%

Question: What about the inhibition [5] of the same compound?
Answer: 9.6%

Question: What about the inhibition [6] of the same compound?
Answer: 7.2%

Question: And the inhibition [7]?
Answer: 0.96%

Question: What about the inhibition [8] of the same compound?
Answer: 0.75%

Question: And the inhibition [9]?
Answer: -5.2%

Question: Which results are given for `Nc1n[nH]c2nnc(-c3c(-c4ccccc4)nn4ccccc34)cc12`?
Answer: inhibition [1]: -0.39%; inhibition [2]: 4.99%; inhibition [3]: -1.46%; inhibition [4]: -4.7%; inhibition [5]: 4.73%; inhibition [6]: 8.08%; inhibition [7]: 0.55%; inhibition [8]: -2.01%; inhibition [9]: -1.19%
